These results are taken from patent US20120277257A1, “Methods of Treating Diseases, Pharmaceutical Compositions, and Pharmaceutical Dosage Forms” (MYREXIS, INC., priority 2009, published 2012).

The test system of assay [1] is MIA PaCa-2 pancreatic cancer. Nature of the assay: MIA PaCa-2 pancreatic cancer xenograft. The following applies: 100 mg/kg ip, weekly, Day 15.
The test system of assay [2] is NCI-N87 Her2+ gastric cancer. Nature of the assay: NCI-N87 (Her2+) gastric cancer xenograft in athymic nude mice. It is filed as in vivo. The following applies: 40 mg/kg oral, thrice weekly for three weeks, day 21. The method, then: The efficacy of Compound 1 was compared to that of SNX-5422 (Serenex, Pfizer, Inc.) on the growth of NCI-N87 (Her2+) human gastric cancer cells as a xenograft in athymic nude mice model. Animals were dosed with either 200 mg/kg of Compound 1 on days 1 through 21 or 40 mg/kg of SNX-5422 thrice weekly for three weeks. Tumor volumes and body weights were determined from Days 1 to 39.
Five million NCI-N87 cells were implanted subcutaneously in the right flank of female nude mice (Hsd:athymic nude-Foxn1^nu). When the median tumor volume was approximately 123 mm^3, mice were randomized into three cohorts of ten animals. One cohort was dosed orally with vehicle, one cohort was dosed orally with Compound 1 (200 mg/kg) formulated in vehicle, and one cohort was dosed orally with SNX-5422 (40 mg/kg) formulated in dimethylacetamide/polyethylene glycol 300. Vehicle and Compound 1 were administered on days 1-21 and SNX-5422 was administered thrice weekly on Days 1, 3, 5, 8, 10, 12, 15, 17 and 19. The mice were observed daily for mortality and signs of toxicity.
Xenografted mice bearing N-87 tumors (median volume ˜125 mm^3) were dosed orally with Compound 1 for three weeks with the dosing schedules indicated in FIG. 4.
Additionally, xenografted mice bearing N-87 tumors (median volume ˜115 mm^3) were dosed orally with Compound 1 for twenty-one days at 200 mg/kg, once daily or 100 mg/kg, twice-daily as indicated in FIG. 5. Tumor growth inhibition (TGI) was monitored up to Day 39.

Assay [3] relates to A549 non-small cell lung cancer. Nature of the assay: A549 non-small cell lung cancer xenograft. It is filed as in vivo, mice. The following applies: maximum tolerated dose, oral once daily for 21 days, Day 22.

For the compound `O=c1[nH]cc(F)c(=O)[nH]1` [5-Fluorouracil, reference compound], the “TGI (tumor growth inhibition)” value in assay [1] came to 58%.

For the compound `CC1(C)CC(=O)c2c(C(F)(F)F)nn(-c3ccc(C(N)=O)c(N[C@H]4CC[C@H](OC(=O)CN)CC4)c3)c2C1` [SNX-5422, reference compound], the “decrease in median tumor volume” value in assay [2] is reported as 22%. Consider `C#Cc1cccc(Nc2ncnc3cc(OCCOC)c(OCCOC)cc23)c1` [erlotinib], for which, in assay [3], the “TGI (tumor growth inhibition)” value amounted to 88%.
